The values that follow come from the METLIN SMRT retention time set (Domingo-Almenara et al. 2019).

The data set can be described thus: gradient 5% acetonitrile 3 min, to 50% in 2 min, to 85% in 15 min, held 3 min, 100 µL/min. The following applies: column: Zorbax Extend-C18 2.1 x 50 mm; eluents: water / acetonitrile, 0.1% formic acid. Summed up:
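Each retention time is based on an adduct peak selected computationally and verified by manual inspection. Measurements used HPLC–quadrupole time-of-flight mass spectrometry in positive and negative ionization mode on mixtures of ~100 pure standards. Chromatography ran on a Zorbax Extend-C18 column (2.1 × 50 mm, 1.8 μm) at 100 μL/min with water and acetonitrile, each containing 0.1% formic acid, and dead and dwell volumes of 40 μL and 900 μL.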
With `CC(=O)Nc1ccc(N2CCN(C3CCCCC3)CC2)cc1C(=O)O`, the RP-LC retention time amounted to 588 s.
In turn, `Cc1ccc(C)c(C(=O)N2CCCC2c2nc(-c3cccc(Cl)c3)no2)c1` (centres undefined) had an RP-LC retention time of 1190 s.
The figure for `Cc1cnc(C(=O)NC2C[C@H]3CC[C@@H](C2)N3C(=O)c2sccc2C)cn1` (some centres undefined) is 663 s; for `CO[C@H]1CN(C2CCN(S(=O)(=O)Cc3ccccc3)CC2)[C@H]1c1ccncc1` it is 612 s.
Compound `Cc1ccc(C)c(CNC(=O)c2ccc(-c3nc4cccnc4n3C3CCCCC3)cc2)c1` yielded an RP-LC retention time of 1120 s.
`O=C(NCC1CCCO1)c1csc(N2CCN(c3ccc(F)cc3)CC2)n1` (centres undefined) registered an RP-LC retention time of 902 s.
The figure for `CCOc1ccc(-n2c(=O)c3sccc3n(Cc3nc(-c4cccc(OCC)c4)no3)c2=O)cc1` is 1080 s; for `COc1ccc(OC)c(CNC(=O)Cc2nnc(-c3cccs3)o2)c1` it is 700 s; for `CCOC(=O)c1csc(NC(=O)c2sc3ccccc3c2Cl)n1` it is 999 s.
`Cc1cc(C)n2nc(SCC(=O)NCc3cccs3)nc2n1` had an RP-LC retention time of 647 s.
Take `COCc1noc(C2CCCCCN2C(=O)NC(C)C)n1` (centres undefined): the RP-LC retention time was determined as 730 s.
Consider `O=C1c2ccccc2C(=O)N1c1ccc(OC(F)(F)F)cc1`, for which the RP-LC retention time was 954 s.
With `CC(C)CCNC(=O)N1CC(c2nc(-c3cccnc3)no2)C2(CCOCC2)C1` (centres undefined) the figure was 725 s.
With `CSc1ccccc1C(=O)NCC1CCN(S(C)(=O)=O)CC1` the figure was 641 s; with `Cc1ccc(NC(=O)CSc2nc(=O)n(CCN(C)C)c3c2CCC3)cc1F`, 646 s; with `Cc1csc(-c2cc(S(=O)(=O)NC3CC3)c(C)n2C)n1`, 809 s.
With `O=C(Nc1nnc(C2CC(=O)N(c3ccc(F)cc3)C2)o1)c1cccc(Cl)c1` (centres undefined) the figure was 750 s; with `O=c1c(=O)n(-c2ccccc2)ccn1Cc1nc(-c2cccc(C(F)(F)F)c2)no1`, 902 s; with `COCc1noc([C@@H]2CN(C(=O)CC3CCCC3)C[C@H]2CO)n1`, 670 s.
Compound `Cc1nc(-c2csc(S(=O)(=O)N3CCC(C(=O)N4CCOCC4)CC3)c2)no1` displayed an RP-LC retention time of 719 s.
Consider `O=C(Cn1nc2c3cc(F)ccc3ncn2c1=O)Nc1ccc(Br)cc1`, for which the RP-LC retention time turned out to be 745 s.
On to `Cc1nc(C)c(C(=O)NC2CCc3nn(CC4CC4)c(=O)n3CC2)s1` (centres undefined), for which the RP-LC retention time is 597 s.
With `Cc1c(C(=O)NCCCN2CCOCC2)oc2ccc3c(c12)C(O)CC1(CCCCC1)O3` (centres undefined) the figure was 688 s; with `O=C(CN1C(=O)CCc2cc(Br)ccc21)NCc1ccccc1`, 784 s; with `O=C(C1CC1)N1CCc2c([nH]c3ccccc23)C1c1ccc(F)cc1` (centres undefined), 1050 s.
With `Cc1ccc(S(=O)(=O)N2CC(=O)N(c3ccccc3C)C(C)(C(=O)NC3CCCC3)C2)cc1` (centres undefined), the RP-LC retention time came out at 991 s.
On to `CC(C)c1ccc(S(=O)(=O)N2CCC(C(=O)NCc3csc(-c4cccs4)n3)CC2)cc1`, for which the RP-LC retention time worked out at 1030 s.
In turn, `Cc1noc(C2CN(C(=O)Nc3ccc(C)c(Cl)c3)CC23CCOCC3)n1` (centres undefined) returned an RP-LC retention time of 816 s.
With `CC(C)n1c(C2CCN(C(=O)c3cccc(N(C)C)c3)C2)nc2ccncc21` (centres undefined) the figure was 529 s; with `CCn1c(C(=O)NCCCN2CCCC(C)C2)c(N2CCCC2=O)c2cc(OC)ccc21` (centres undefined), 666 s.
With `CCNc1cc(N2CCC(CCC(=O)NCCN3CCc4ccccc4C3)CC2)ncn1` the figure was 572 s; with `CSc1cccc(NC(=O)C2CCN(S(=O)(=O)c3ccc(-c4noc(C5CC5)n4)cc3)CC2)c1`, 1100 s.
The compound `Cc1ccc(C)c(S(=O)(=O)Nc2ccc3scnc3c2)c1` came in with an RP-LC retention time of 776 s.
Turning to `CCN1C(=O)c2cccnc2Sc2cc(CNC(=O)c3cnccn3)ccc21`, the RP-LC retention time was determined as 683 s.
As to `CN1C(=O)COc2ccc(-c3csc(NC(=O)c4ccccc4)n3)cc21`, the RP-LC retention time turned out to be 926 s.
The figure for `CCn1ccc2sc(C)c(C(=O)NCc3ccccc3F)c2c1=O` is 818 s; for `COc1ccccc1C1(CNS(=O)(=O)c2ccc(NC(=O)C(C)C)cc2)CCOCC1` it is 806 s; for `CCC(=O)Nc1ccc2c(c1)nc(CN1CCN(S(C)(=O)=O)CC1)n2CC` it is 586 s.
On to `O=C(NCc1ccc(F)cc1)C1CCCN(c2ccc(-c3ccco3)nn2)C1` (centres undefined), for which the RP-LC retention time came out at 622 s.
Compound `CCCCOc1ccc(NC(=O)c2cc(=O)c3ccc(C)c(C)c3o2)c2cccnc12` yielded an RP-LC retention time of 788 s.
With `COc1ccc(NS(=O)(=O)c2sc3ccc(Cl)cc3c2C)cc1N1CCNCC1` the figure was 781 s.
Compound `CCn1cc(CN2CCC(C(=O)NCc3ccc(OC)cc3OC)CC2)c2cc(OC)ccc21` yielded an RP-LC retention time of 716 s.
The figure for `Cc1ccc(S(=O)(=O)N(C)CC2CCOCC2)cc1Cl` is 894 s; for `COc1ccc(N2CC(c3noc(-c4ccc(C)cc4)n3)CC2=O)cc1OC` (centres undefined) it is 909 s.
`O=C(Nc1cnn(-c2ncc(N3CCCCC3)cn2)c1)Nc1ccccc1C(F)(F)F` registered an RP-LC retention time of 891 s.
Compound `Cc1cc(N2CCN(C(=O)CCc3ccccc3)CC2)nc2nnc(C)n12` returned an RP-LC retention time of 616 s.
With `CN(CC1(C)CCOCC1)C(=O)c1ccc2ccccc2n1` the figure was 727 s; with `Cc1noc(-c2nc(-c3cccnc3)no2)n1`, 736 s.
`CCOc1ccccc1C(=O)Nc1c(C(=O)Nc2ccccc2F)oc2cccnc12` displayed an RP-LC retention time of 841 s.
In the case of `CC(CCNC(=O)c1cc(S(=O)(=O)N2CCCCC2)ccc1Cl)N1CCCC1` (centres undefined), the RP-LC retention time is 643 s.
Turning to `O=C(NCc1ccco1)c1ccc(NC(=O)C2CC2)cc1N1CCCCCC1`, the RP-LC retention time was 584 s.
With `O=C1CC(c2noc(-c3ccccc3)n2)CN1Cc1ccccc1` (centres undefined) the figure was 642 s.
With `c1ccc(-c2nc(-c3cn(-c4ccccc4)nn3)no2)cc1` the figure was 1020 s; with `CCOC(=O)C1CCN(C(=O)C2COC3(CCCCC3)N2C(=O)c2ccccc2)CC1` (centres undefined), 808 s; with `C(=C\c1ccccc1)/CN1CCN(CCOC(c2ccccc2)c2ccccc2)CC1`, 884 s.
With `O=C(Cc1nnc2cc(-c3nc(C4CC4)no3)ccn12)NCc1ccc(Cl)cc1` the figure was 798 s; with `Cc1ccc(CN2C(=O)NC3(CCN(C(=O)c4cccn4C)CC3)C2=O)cc1`, 787 s.
Regarding `CCCCNC(=O)CCCN1C(=O)CCn2nc(-c3cn(C)c4ccccc34)cc21`, the RP-LC retention time came to 781 s.
For the compound `CCCNc1cc(N2CCC(CCC(=O)NCC(C)C)CC2)ncn1`, the RP-LC retention time was determined as 642 s.
